# Results taken from patent publication US10738101B2, “Method for selecting odor-controlling substance” (Kao Corporation, priority 2015, dated 2020).
# Columns and labels:
# OR9Q2 = biological target: T1, OR9Q2 (Homo sapiens, UniProt Q8NGE9); assay: Luciferase reporter gene assay, OR9Q2-expressing HEK293 cells; format: cell-based; conditions: for responsiveness of OR9Q2 (fold increase): FIG. 2, 5B, 5C
# T1 construct: expressed in transfected cells; host or cells: HEK293
# T1 sequence (Q8NGE9 1-314): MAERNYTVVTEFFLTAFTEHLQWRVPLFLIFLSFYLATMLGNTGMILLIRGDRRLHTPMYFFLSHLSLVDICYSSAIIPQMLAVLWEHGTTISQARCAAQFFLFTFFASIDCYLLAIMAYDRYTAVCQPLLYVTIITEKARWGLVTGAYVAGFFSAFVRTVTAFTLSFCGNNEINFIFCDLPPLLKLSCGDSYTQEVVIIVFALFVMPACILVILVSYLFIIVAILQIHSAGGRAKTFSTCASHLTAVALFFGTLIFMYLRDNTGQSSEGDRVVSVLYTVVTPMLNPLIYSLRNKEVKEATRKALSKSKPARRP
# Text: (§1) On the basis of sequence information registered in GenBank, genes respectively encoding 370 human olfactory receptors shown in Tables 1-1 and 1-2 and genes respectively encoding the human olfactory receptors OR5AN1, OR10G4 and OR9Q2 (respectively set forth in SEQ ID NOS: 1, 3 and 5) were cloned. Each of the genes was cloned by the PCR using human genomic DNA person (G1521: Promega) as a template. Each gene amplified by the PCR was incorporated into a pENTR vector (Invitrogen) in accordance with the instruction, and was recombined to NotI and AscI sites produced downstream from a Flag-Rho tag sequence on a pME18S vector by using NotI and AscI sites present on the pENTR vector.
# (§2) In 1) of Example 1, HEK293 cells on which the 370 human olfactory receptors were respectively expressed were produced. A reaction solution having a composition shown in Table 2 was prepared and allowed to stand still in a clean bench for 15 minutes, and the resultant was added by 4.4 μL per well in a 384-well plate (BioCoat). Subsequently, the HEK293 cells (20×10^4 cells/cm^2) were seeded by 40 μL per well, and the resultant was cultured for 24 hours in an incubator kept at 37° C. and 5% CO2.
# (§3) In 2) of Example 1 and Examples 2 and 3, HEK293 cells in which the human olfactory receptor OR5AN1, OR10G4, OR9Q2 or OR1A1 was expressed were produced. A reaction solution having a composition shown in Table 3 was prepared and allowed to stand still in a clean bench for 15 minutes, and the resultant was added by 10 μL per well in a 96-well plate (BioCoat). Subsequently, the HEK293 cells (3×10^5 cells/cm^2) were seeded by 90 μL per well, and the resultant was cultured for 24 hours in an incubator kept at 37° C. and 5% CO2. Cells obtained under conditions for not expressing the olfactory receptor (Mock) were also prepared to be used as a control, and were used similarly in an experiment.
# (§4) The olfactory receptor expressed on the HEK293 cells increases the intracellular cAMP amount by activating adenylate cyclase in conjugation with intracellular Gαs. In the measurement of odor response in this study, luciferase reporter gene assay for monitoring the increase of the intracellular cAMP amount as a luminescence value derived from a firefly luciferase gene (fluc2P-CRE-hygro) was employed. Besides, a fused Renilla luciferase (hRluc-CMV) gene was simultaneously transferred downstream of the CMV promoter, so as to be used as an internal standard for correcting the gene transfer efficiency or an error in the number of cells. For measuring the activity of the luciferase, Dual-Glo(™) Luciferase Assay System (Promega) was used, and the measurement was performed in accordance with the operation instruction of the product. Under each of various stimulation conditions, a value fLuc/hRluc obtained by dividing a firefly luciferase-derived luminescence value by a Renilla luciferase-derived luminescence value was calculated. A value obtained by dividing a value fLuc/hRluc induced by stimulation with an odorous substance by a value fLuc/hRluc of a cell not stimulated with the odorous substance was obtained as fold increase, which was used as an index of the response intensity. A dose-response curve was analyzed using Graph Pad Prism.
# (§5) The medium was removed from each of the cultures of the olfactory receptor expressing cells produced according to Reference Example 1, and an odorous substance (muscone, guaiacol or p-cresol) was added thereto. A DMEM medium (Nacalai) containing muscone or guaiacol was added to a 384-well plate containing the culture by 30 μL per well (to a final concentration of muscone of 100 μM and of guaiacol of 1 mM). Alternatively, a CD293 medium (Invitrogen) containing p-cresol was added to a 96-well plate containing the culture by 75 μL per well (to a final concentration of 1 mM). […]
# odor of p-cresol = assay: Sensory test of cross-adaptation, target odor p-cresol; format: in vivo, human; conditions: panelists, test sample smelled before target sample, FIG. 6C
# Protocol: (§6) The cross-adaptation effect induced by the odorous substance evaluated in Example 2 was estimated by a sensory test. A glass bottle (No. 11, manufactured by Hakuyo Glass Co., Ltd., capacity: 110 mL) was charged with a target odorous substance to be used as a target sample. As the target odorous substance, muscone, guaiacol or p-cresol was used. As the muscone, a cotton ball soaked with 1 mg of muscone was used. As the guaiacol and p-cresol, 1 mL of a mineral oil (Sigma-Aldrich) solution in a concentration of 10 ppm was used. In a similar manner, a glass bottle was charged with a test substance to be used as a test sample. As the test sample, 5 mg of an ethyl vanillin powder, or 1 mL of a mineral oil (Sigma-Aldrich) solution of p-cresyl acetate, p-cresyl isobutyrate or p-methyl quinoline prepared to a concentration of 1,000 ppm was used.
# (§7) The sensory test was performed by a single blind method by five to eight panelists. The target sample was first presented to each panelist, who was caused to replay on the odor intensity. Next, the test sample was presented for 2 minutes or until the odor could not be perceived. Thereafter, the target sample was presented again, and the panelist was caused to replay on the odor intensity. This series of operations was defined as one set, and the sensory test was carried out with four sets per day per panelist set as the upper limit. A recess of at least 10 minutes or more was provided between the sets.
# The panelist was caused to plot the estimated intensity of the target odor on a straight line of 9.5 cm with both ends respectively provided with criteria “No odor” and “Strong odor”. A distance (A) between the position of the target odor intensity plotted in the initial estimate and the end of “No odor”, and a distance (B) between the position of the target odor intensity plotted in the second estimate and the end of “No odor” were obtained, so as to calculate percentage odor intensity of the initial estimate [B/A*100−100]. As this value is smaller, the intensity of the target odor perceived in the second estimate is suppressed stronger as compared with that in the initial estimate, namely, stronger cross-adaptation is induced. If this value is −100%, it means that the target odor was not perceived at all in the second estimate.
# OR5AN1 = biological target: T2, OR5AN1 (Homo sapiens, UniProt Q8NGI8); assay: Luciferase reporter gene assay, OR5AN1-expressing HEK293 cells; format: cell-based; conditions: 0.3 μM to 100 μM, vs Mock cells, FIG. 3
# T2 construct: expressed in transfected cells; host or cells: HEK293
# T2 sequence (Q8NGI8 1-311): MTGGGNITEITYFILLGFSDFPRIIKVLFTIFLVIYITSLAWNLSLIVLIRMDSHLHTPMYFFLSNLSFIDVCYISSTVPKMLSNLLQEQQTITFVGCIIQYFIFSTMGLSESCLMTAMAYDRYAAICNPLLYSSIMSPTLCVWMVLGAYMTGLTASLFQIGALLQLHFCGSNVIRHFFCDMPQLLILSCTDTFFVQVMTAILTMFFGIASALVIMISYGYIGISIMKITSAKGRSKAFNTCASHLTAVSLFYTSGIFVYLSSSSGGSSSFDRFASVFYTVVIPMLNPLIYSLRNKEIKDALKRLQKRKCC
# Text: as §1, §2, §3, §4, §5
# muscone odor = assay: Sensory test of cross-adaptation, target odor muscone; format: in vivo, human; conditions: panelists, test sample smelled before target sample, FIG. 6A
# Protocol: as §6, §7
# The panelist was caused to plot the estimated intensity of the target odor on a straight line of 9.5 cm with both ends respectively provided with criteria “No odor” and “Strong odor”. A distance (A) between the position of the target odor intensity plotted in the initial estimate and the end of “No odor”, and a distance (B) between the position of the target odor intensity plotted in the second estimate and the end of “No odor” were obtained, so as to calculate percentage odor intensity of the initial estimate [B/A*100−100]. […]
# OR1A1 = biological target: T3, OR1A1 (Homo sapiens, UniProt Q9P1Q5); assay: Luciferase reporter gene assay, OR1A1-expressing HEK293 cells; format: cell-based; conditions: 0.3 μM to 100 μM, vs Mock cells, FIG. 4
# T3 construct: expressed in transfected cells; host or cells: HEK293
# T3 sequence (Q9P1Q5 1-309): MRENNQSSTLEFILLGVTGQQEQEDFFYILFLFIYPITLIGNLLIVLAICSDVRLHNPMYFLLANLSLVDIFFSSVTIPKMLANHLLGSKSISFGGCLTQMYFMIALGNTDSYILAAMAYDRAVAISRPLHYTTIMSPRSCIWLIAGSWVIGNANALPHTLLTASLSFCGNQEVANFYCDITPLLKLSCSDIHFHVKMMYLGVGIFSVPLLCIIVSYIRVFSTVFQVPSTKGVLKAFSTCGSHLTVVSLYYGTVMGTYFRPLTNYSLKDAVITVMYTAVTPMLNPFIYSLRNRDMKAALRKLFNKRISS
# Text: as §1, §2
# In 2) of Example 1 and Examples 2 and 3, HEK293 cells in which the human olfactory receptor OR5AN1, OR10G4, OR9Q2 or OR1A1 was expressed were produced. […]
# The olfactory receptor expressed on the HEK293 cells increases the intracellular cAMP amount by activating adenylate cyclase in conjugation with intracellular Gαs. In the measurement of odor response in this study, luciferase reporter gene assay for monitoring the increase of the intracellular cAMP amount as a luminescence value derived from a firefly luciferase gene (fluc2P-CRE-hygro) was employed. […] Under each of various stimulation conditions, a value fLuc/hRluc obtained by dividing a firefly luciferase-derived luminescence value by a Renilla luciferase-derived luminescence value was calculated. […] A dose-response curve was analyzed using Graph Pad Prism. […]
# OR10G4 = biological target: T4, OR10G4 (Homo sapiens, UniProt Q8NGN3); assay: Luciferase reporter gene assay, OR10G4-expressing HEK293 cells; format: cell-based; conditions: for responsiveness of OR10G4 (fold increase): FIG. 5A, 5C
# T4 construct: expressed in transfected cells; host or cells: HEK293
# T4 sequence (Q8NGN3 1-311): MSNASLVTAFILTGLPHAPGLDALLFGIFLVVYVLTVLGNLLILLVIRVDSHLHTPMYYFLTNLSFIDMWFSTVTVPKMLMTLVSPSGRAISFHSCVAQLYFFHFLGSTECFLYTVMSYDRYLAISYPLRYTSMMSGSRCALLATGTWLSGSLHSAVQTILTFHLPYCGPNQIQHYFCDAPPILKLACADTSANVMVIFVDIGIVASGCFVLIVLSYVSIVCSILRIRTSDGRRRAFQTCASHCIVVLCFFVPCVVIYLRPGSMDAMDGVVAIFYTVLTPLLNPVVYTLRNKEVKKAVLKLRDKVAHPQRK
# Text: as §1, §2, §3
# as §4, with “For measuring the activity of the luciferase, Dual-Glo(™) Luciferase Assay System (Promega) was used, and the measurement was performed in accordance with the operation instruction of the product.” left out, “A value obtained by dividing a value fLuc/hRluc induced by stimulation with an odorous substance by a value fLuc/hRluc of a cell not stimulated with the odorous substance was obtained as fold increase, which was used as an index of the response intensity.” left out, “Prism. […]” for “Prism.”
# odor of guaiacol = assay: Sensory test of cross-adaptation, target odor guaiacol; format: in vivo, human; conditions: panelists, test sample smelled before target sample, FIG. 6B
# Protocol: as §6
# The sensory test was performed by a single blind method by five to eight panelists. The target sample was first presented to each panelist, who was caused to replay on the odor intensity. Next, the test sample was presented for 2 minutes or until the odor could not be perceived. Thereafter, the target sample was presented again, and the panelist was caused to replay on the odor intensity. This series of operations was defined as one set, and the sensory test was carried out with four sets per day per panelist set as the upper limit. […]
smiles,measurement,setting,value
"CC(=O)Oc1ccc(C)cc1 [p-cresyl acetate, (4-methylphenyl)acetate]",responsiveness of OR9Q2 (fold increase),OR9Q2,have responsiveness
same,cross-adaptation of p-cresol odor induced by test substance,odor of p-cresol,induced
"O=C1CCCCC=CCCCCCCCCCO1 [Ambrettolide, 17-oxacycloheptadec-6-en-1-one]",activation of OR5AN1 response (fold increase),OR5AN1,did not induce the response
same,cross-adaptation of muscone odor induced by test substance,muscone odor,did not induce the cross-adaptation
"CC(C)(O)CCCC1=CCC(C=O)CC1 [Lyral (R), 4-(4-hydroxy-4-methyl-pentyl)-cyclohex-3-enecarbaldehyde]",activation of OR5AN1 response (fold increase),OR5AN1,did not induce the response
CC/C=C\CCO [Cis-3-hexenol],activation of OR5AN1 response (fold increase),OR5AN1,did not induce the response
same,activation of OR1A1 response (fold increase),OR1A1,activated
same,cross-adaptation of muscone odor induced by test substance,muscone odor,did not induce the cross-adaptation
"O=C1CCCCCCC=CCCCCCCC1 [Globanone, cyclohexadec-8-en-1-one]",activation of OR5AN1 response (fold increase),OR5AN1,activating the response
"Cc1ccc2ncccc2c1 [p-methyl quinoline, 6-methyl quinoline]",responsiveness of OR9Q2 (fold increase),OR9Q2,have responsiveness
same,cross-adaptation of p-cresol odor induced by test substance,odor of p-cresol,induced
"Cc1ccc(OC(=O)C(C)C)cc1 [p-cresyl isobutyrate, (4-methylphenyl)2-methylpropanoate]",responsiveness of OR9Q2 (fold increase),OR9Q2,have responsiveness
same,cross-adaptation of p-cresol odor induced by test substance,odor of p-cresol,induced
"CC1CC=CCCCCCCCCCC(=O)C1 (centres unmarked) [Muscenone delta, 3-methyl-5-cyclopentadecen-1-one]",activation of OR5AN1 response (fold increase),OR5AN1,activating the response
"Cc1ccc(O)cc1 [p-cresol, p-Cresol]",responsiveness of OR9Q2 (fold increase),OR9Q2,have responsiveness
same,concentration dependency of OR9Q2 response,"OR9Q2; different concentrations, FIG. 2",showed response to p-cresol dependently on the concentration
same,"responsiveness of OR9Q2 among 370 olfactory receptors (response intensity, fold increase)","OR9Q2; screen of 370 human olfactory receptors, p-cresol 1 mM, FIG. 1",highest responsiveness
"O=C1CCCCCCCCCCCCCCO1 [Exaltolide (R), 16-oxacyclohexadecan-1-one]",activation of OR5AN1 response (fold increase),OR5AN1,activating the response
"Cc1c([N+](=O)[O-])c(C)c([N+](=O)[O-])c(C(C)(C)C)c1[N+](=O)[O-] [Musk xylol, 1-tert-butyl-3,5-dimethyl-2,4,6-trinitrobenzene]",activation of OR5AN1 response (fold increase),OR5AN1,activating the response
"CCOc1cc(C=O)ccc1O [ethyl vanillin, 3-ethoxy-4-hydroxybenzaldehyde]",responsiveness of OR10G4 (fold increase),OR10G4,had responsiveness
same,cross-adaptation of guaiacol odor induced by test substance,odor of guaiacol,induced
"COc1ccccc1O [guaiacol, 2-methoxyphenol]",responsiveness of OR10G4 (fold increase),OR10G4,had responsiveness
same,"responsiveness of OR10G4 among 370 olfactory receptors (response intensity, fold increase)","OR10G4; screen of 370 human olfactory receptors, guaiacol 1 mM, FIG. 1",highest responsiveness
"OCCc1ccccc1 [phenyl ethyl alcohol (PEA), 2-phenylethanol]",activation of OR5AN1 response (fold increase),OR5AN1,did not induce the response
same,activation of OR1A1 response (fold increase),OR1A1,activated
same,cross-adaptation of muscone odor induced by test substance,muscone odor,did not induce the cross-adaptation
